Experiments:
[1] = target: Human immunodeficiency virus type 1 reverse transcriptase (Human immunodeficiency virus 1) (UniProt Q72547); assay: In vitro antiviral activity against HIV-1 Reverse transcriptase wild type
[2] = test system: HIV-1 reverse transcriptase (Human immunodeficiency virus 1); assay: Ratio for inhibition of HIV-1 RT to that of type and HIV-1 RT M184V mutant was determined
[3] = test system: Human immunodeficiency virus type 1 reverse transcriptase (Human immunodeficiency virus 1), Q72547 [M184V]; assay: In vitro antiviral activity against HIV-1 Reverse transcriptase M184V mutant

Row | SMILES | EC90 [1] [µM] | FI [2] | EC90 [3] [µM]
1 | Nc1ccn([C@@H]2O[C@H](CO)C=C2F)c(=O)n1 | 8 | 0.23 | 1.8
2 | Nc1ccn(C2SC(CO)C=C2F)c(=O)n1 (configuration not stated) | 5 | 25 | 125
3 | Nc1nc(=O)n([C@@H]2C=C[C@H](CO)O2)cc1F |  | 0.8 | 

— ChEMBL document CHEMBL1136820, “The role of 2',3'-unsaturation on the antiviral activity of anti-HIV nucleosides against 3TC-resistant mutant (M184V)” (Bioorg Med Chem Lett, 2003)
